US20230017712A1, “SUSTAINED RELEASE DRUG DELIVERY DEVICE” (OAK CREST INSTITUTE OF SCIENCE, priority 2019, published 2023)
Read-outs that look alike come from different tables or passages of the source.

What was measured:
[1] = kernel 70% TAF / 30% triethyl citrate
Description: For both implant types, kernels consisted of 70% TAF and 30% triethyl citrate (w/w). Skins used custom tube extrusions of polyurethane [Pellethane® 2363-55DE (Lubrizol, Inc.); 25 mm length, 2.2 mm I.D., 0.13 mm wall thickness] and silicone [MED-4765 (Nusil, Inc.); 25 mm length, 2.1 mm I.D., 0.13 mm wall thickness]. The implant ends were sealed with MEDS-4213 (Nusil, Inc.) silicone adhesive. In vitro release studies were carried out in 100 mL of release media (0.5% solutol HS 15 in 1×PBS) at 37° C. in an orbital shaking incubator at 125 RPM. Media was changed as required to keep TAF concentration at least 50-fold below saturation to maintain sink conditions.

[2] = monoolein (MYVEROL 18-92K) paste, FIG. 30B
Description: (§1) In vitro release studies were carried out in 100 mL of release media (0.1% solutol HS 15 in 1×PBS) at 37° C. in an orbital shaking incubator at 125 RPM. Media was changed as required to keep TAF concentration at least 50-fold below saturation to maintain sink conditions.

[3] = Description: The concentration of TAF in the release media was measured by UV-vis absorption spectroscopy (λmax 262 nm).
HIV [4] = settings: target 50 fmol TFV-DP per million PBMCs; cited from earlier work
Remark: listed apart in the source
[5] = paste 50% TAF / 50% PEG 400
Description: as §1, with “Implants were fabricated using an ePTFE tubing skin (40 mm length, 2.0 mm I.D., 0.18 mm wall thickness) and a paste kernel composed of 50% TAF and 50% PEG 400 (w/w); the tube ends were sealed. In” for “In”

[6] = TAF powder, no excipients, PBS, 37° C.
Description: Segments (25 mm long) of the ePTFE tubes listed in TABLE 1 were cut, and approximately 3 mm of each end of the tube were prepared for sealing using FluoroEtch primer (Action Technologies, Pittston, Pa.) according to manufactures instructions. The tubes were then filled with tenofovir alafenamide (TAF) powder. No other excipients were used. The mass of TAF per implant varied between 20 and 70 mg depending on the experiment. The filled implants were sealed at both ends by placing a drop of Permabond 105 cyanoacrylate adhesive (Permabond Engineering Adhesives, Pottstown, Pa., USA) inside each end of the tube and crimping the end closed for 30 sec to allow the adhesive to cure and form a tight seal. Implants were kept at room temperature (ca. 23° C.) for 24 hours to allow the adhesive bond to reach full strength. The TAF in vitro release kinetics from the loaded implants was investigated by immersing the device in a solution consisting of phosphate buffered saline (PBS, 1×, 100 mL) containing sodium azide (0.01% w/v) at 37° C. with orbital shaking at 125 RPM for 30 days. The concentration of TAF in the release media was measured by UV-vis absorption spectroscopy (λmax 262 nm).

HIV [7] = settings: cited from earlier work
HIV [8] = settings: from non-human primate efficacy studies; cited from earlier work
[9] = 600 mg every 8 weeks, intramuscular; cited from earlier work

Compound	release rate, linear fit days 20-160 ([1]; polyurethane skin (Pellethane 2363-55DE)) [mg/day]	release rate, linear fit days 20-160 ([1]; silicone skin (MED-4765)) [mg/day]	effect of monoolein paste on release kinetics through ePTFE tubes relative to other hydrophobic oils [2]	release behaviour of coated sponges ([3]; PDMS sponges coated with DL-PLA, L-PLA or PCL)	time for drug release from TAF-impregnated sponges ([3]; no polymer coating applied)	linear subcutaneous release rate leading to protective TFV-DP PBMC concentrations (HIV [4]) [mg/day]	TAF delivered linearly over 80 days (blended with PEG 400)	TAF delivered from the implants over the first month (blended with TEC) [mg]	TAF delivered in less than the first day (blended with TEC) [mg]	slope (release rate), simple linear regression (paste TAF 77% w/w with PEG 400 23% w/w, ePTFE 0.84 g cm^−3, 40 mm implant) [µg/day]	TAF release rate ([5]; ePTFE density 0.47 g cm^−3) [mg/day]	TAF release rate ([5]; ePTFE density 0.84 g cm^−3) [mg/day]	daily release rate (slope of linear regression, best fit value±SE) ([6]; ePTFE tube density 0.34 g cm^−3) [mg/day]	daily release rate (slope of linear regression, best fit value±SE) ([6]; ePTFE tube density 0.47 g cm^−3) [mg/day]	daily release rate (slope of linear regression, best fit value±SE) ([6]; ePTFE tube density 0.84 g cm^−3) [mg/day]	daily release rate (slope of linear regression, best fit value±SE) ([6]; ePTFE tube density 1.13 g cm^−3) [mg/day]	release rate that could be protective (HIV [7])	steady state plasma concentration target, four times the protein adjusted IC90 (PA-IC90) (HIV [8]) [µg/mL]	participants with trough concentrations above 1× PA-IC90 [9] [%]	participants with trough concentrations above 4× PA-IC90 [9] [%]
CC(C)OC(=O)[C@H](C)N[P@](=O)(CO[C@H](C)Cn1cnc2c(N)ncnc21)Oc1ccccc1 [TAF, Tenofovir alafenamide]	0.079	0.035	increasing the rate of drug release	controlled and tuned over 15 d	under 1 d	0.5	ca. 5 mg	60	5	54.4	0.51	0.065	1.22 ± 0.023	0.40 ± 0.0087	0.58 ± 0.0089	0.12 ± 0.0037	ca. 0.3 mg d^−1			
C[C@H]1CO[C@@H]2Cn3cc(C(=O)NCc4ccc(F)cc4F)c(=O)c(O)c3C(=O)N12 [CAB, Cabotegravir]																		0.66	≥ 95	≥ 80
